According to US20250098726A1, “AEROSOLISABLE MATERIAL” (Nicoventures Trading Limited, priority 2022, published 2025):

Assay: solubility trial of sensates in propylene glycol/glycerol mixture
Assay type: physicochemical
Details: PG:VG 70:30, sensate w/w % subtracted from PG (Symheat PV 1, WS-3 0.8, Ginger Extract 0.1 w/w %); one hour following addition of VG
Source text: Formulations were produced containing propylene glycol (PG) and glycerol (VG) at a 70:30 ratio with the w/w % sensate addition subtracted from the w/w % of propylene glycol as is typical in the art.

Soluble: ✓
Structure (SMILES): CCNC(=O)[C@@H]1C[C@H](C)CC[C@H]1C(C)C (stereo in doubt) [WS-3, N-ethyl-5-methyl-2-propan-2-ylcyclohexane-1-carboxamide]
